# According to PubChem BioAssay AID1963427 (Molecular Pharmacology Branch, DTP, NCI, 2024):
# Tested on: 317291-083-R-J1-PDC complex spheroid growth
# Experiment: Anticancer human tumor 317291-083-R-J1-PDC patient-derived soft tissue sarcoma cell line growth inhibition [Asc]
# Conditions: for IC50: curve of first compound; for viability, T/C: stronger effect = lower value
# Outline: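 Tumor cells were grown as complex spheroids with human endothelial cells (HUVEC) and human mesenchymal stem cells as stroma. Agents were tested alone and in combination, in half-log steps down from the clinical Cmax, or from 10 microM where Cmax was unknown.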
# 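Also: compound exposure lasted seven days after spheroids formed for three days.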
# 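For viability, T/C in this document: 100% = DMSO vehicle control wells.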
smiles,measurement,setting,value
NC1CCC(NC2CC2c2ccccc2)CC1 (configuration not stated) + CCN1C(C(=O)NC23CCC(C(=O)O)(CC2)CC3)C(c2cccc(Cl)c2F)C2(C(=O)Nc3cc(Cl)ccc32)C12CCCCC2,IC50,second compound 0.00949 µM,> 100 nM
same,IC50,second compound 0.03 µM,> 100 nM
same,IC50,second compound 0.0949 µM,> 100 nM
same,IC50,second compound 0.3 µM,> 100 nM
same,IC50,second compound 0.949 µM,> 100 nM
same,IC50,second compound 3 µM,> 100 nM
same,"viability, T/C","second compound 0.00949 µM, first compound 0.000316 µM",92.4%
same,"viability, T/C","second compound 0.00949 µM, first compound 0.001 µM",103%
same,"viability, T/C","second compound 0.00949 µM, first compound 0.00316 µM",96.6%
same,"viability, T/C","second compound 0.00949 µM, first compound 0.01 µM",97%
same,"viability, T/C","second compound 0.00949 µM, first compound 0.0316 µM",95.5%
same,"viability, T/C","second compound 0.00949 µM, first compound 0.1 µM",94.2%
same,"viability, T/C","second compound 0.03 µM, first compound 0.000316 µM",109%
same,"viability, T/C","second compound 0.03 µM, first compound 0.001 µM",100%
same,"viability, T/C","second compound 0.03 µM, first compound 0.00316 µM",106%
same,"viability, T/C","second compound 0.03 µM, first compound 0.01 µM",114%
same,"viability, T/C","second compound 0.03 µM, first compound 0.0316 µM",107%
same,"viability, T/C","second compound 0.03 µM, first compound 0.1 µM",94.2%
same,"viability, T/C","second compound 0.0949 µM, first compound 0.000316 µM",103%
same,"viability, T/C","second compound 0.0949 µM, first compound 0.001 µM",81.3%
same,"viability, T/C","second compound 0.0949 µM, first compound 0.00316 µM",87.6%
same,"viability, T/C","second compound 0.0949 µM, first compound 0.01 µM",95.7%
same,"viability, T/C","second compound 0.0949 µM, first compound 0.0316 µM",106%
same,"viability, T/C","second compound 0.0949 µM, first compound 0.1 µM",108%
same,"viability, T/C","second compound 0.3 µM, first compound 0.000316 µM",116%
same,"viability, T/C","second compound 0.3 µM, first compound 0.001 µM",108%
same,"viability, T/C","second compound 0.3 µM, first compound 0.00316 µM",98.9%
same,"viability, T/C","second compound 0.3 µM, first compound 0.01 µM",80.3%
same,"viability, T/C","second compound 0.3 µM, first compound 0.0316 µM",102%
same,"viability, T/C","second compound 0.3 µM, first compound 0.1 µM",111%
same,"viability, T/C","second compound 0.949 µM, first compound 0.000316 µM",98.9%
same,"viability, T/C","second compound 0.949 µM, first compound 0.001 µM",120%
same,"viability, T/C","second compound 0.949 µM, first compound 0.00316 µM",76.2%
same,"viability, T/C","second compound 0.949 µM, first compound 0.01 µM",93.8%
same,"viability, T/C","second compound 0.949 µM, first compound 0.0316 µM",97.6%
same,"viability, T/C","second compound 0.949 µM, first compound 0.1 µM",106%
same,"viability, T/C","second compound 3 µM, first compound 0.000316 µM",99.7%
same,"viability, T/C","second compound 3 µM, first compound 0.001 µM",107%
same,"viability, T/C","second compound 3 µM, first compound 0.00316 µM",81.5%
same,"viability, T/C","second compound 3 µM, first compound 0.01 µM",74.2%
same,"viability, T/C","second compound 3 µM, first compound 0.0316 µM",83.6%
same,"viability, T/C","second compound 3 µM, first compound 0.1 µM",74.3%
